Measurements as given in US9201014B2, “Development of photostable near-IR cyanine dyes for in vivo imaging” (National University of Singapore, priority 2010, dated 2015).

Experiments:
[1] = Fluorescence and photostability of dye-labeled EGFR-IgG2a antibodies; format: physicochemical; conditions: conjugated to EGFR-IgG2a, vs ICG label
Method: To compare CyNE790 and ICG-sulfo-OSu for in vivo imaging studies, each reactive ester was conjugated to a monoclonal anti-epidermal growth factor receptor (EGFR) antibody.
100 μg of anti-EGFR-IgG2a were washed with PBS using a Microcon 3K filter (Millipore), and re-suspended in 100 μL of Na2CO3—NaHCO3 buffer (pH 9.2). 20 equiv of CyNE790 or ICG-sulfo-OSu (typically 1.0-1.2 μL of a 10 mM solution in DMSO) were added and the whole mixture was shaken in the dark for 2 hours. The excess dye was removed by washing with PBS (3×500 μL) using a Microcon 3K filter (Millipore) (3 rounds at 14,000 rpm at 4° C. for 60 min).
[…] in PBS (pH 7.3) were fixed in a glass coverslide, and irradiated with a diode laser (95 mW, 740 nm, time frame: 500 ms, no delay). Emission was recorded with a NIR-enhanced CCD camera (Andor Technology) adapted to an Eclipse Ti-U microscope (40× magnification, filter cube 750/800), and images were processed using the software NIS-Elements 3.10. The resulting values are represented as means (n=3), and fitted to a non-linear regression one-phase exponential decay (GraphPad Prism 5.0).

[2] = Formation of aggregates: absorbance spectrum in DMSO vs PBS; format: physicochemical; conditions: spectral profile DMSO vs PBS
[3] = Photobleaching of CyNE790 and ICG-sulfo-OSu in PBS; format: physicochemical
Text: CyNE790 was also compared to ICG-sulfo-OSu, a commercially available succinimidyl ester of ICG (for chemical structures of CyNE790 and ICG-sulfo-OSu, see FIG. 8).

[4] = Photophysical properties of CyNE790 and ICG-sulfo-OSu; format: physicochemical
Method: FIG. 7A is an absorbance spectrum of 10-μM solutions of CyNA-414, CyNE790, ICG and ICG-sulfo-OSu in DMSO and PBS.
FIG. […]
After corroborating the spectral properties of CyNE790 as a fluorescent NIR dye, its applicability for protein conjugation was assessed by comparing CyNE790 to ICG-sulfo-OSu, the commercially available succinidimyl ester of ICG. […] However, the application of ICG to molecular imaging has been limited because its fluorescence is drastically quenched after protein conjugation.

[5] = tested on: mouse macrophage Raw 264.7 cell line; assay: High-throughput cell imaging-based screen of CyNA library; conditions: Raw 264.7 vs mouse splenocytes
Method: In order to identify CyNA probes that could selectively stain mouse macrophage Raw 264.7 cell line (a mouse leukemic monocyte macrophage cell line), a library of CyNA compounds was assayed in a high-throughput cell imaging-based screen. The cell images were recorded using an automated imaging microscope system, IMAGEXPRESS MICRO™, and the fluorescent images were analyzed by cellular fluorescence intensity using METAXPRESS® image processing software.

[6] = Primary screening of photostability of the CyNA library (time-course fluorescence, 8 h); format: physicochemical; conditions: 10 μM in HEPES 100 mM pH 7.4, 2% DMSO
Summary of the method: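 CyNA dyes at 10 μM in 100 mM HEPES pH 7.4 with 2% DMSO irradiated by xenon lamp for 8 h. Fluorescence (ex/em 790-820 nm) read every 10 min; stability given as F8h/Fo.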

[7] = tested on: primary mouse peritoneal cavity cells; assay: Validation of macrophage selectivity (peritoneal cells, Raw 264.7, splenocytes); format: cell-based; conditions: 1 μM, 1 hour
Method: To validate the selectivity of CyNA-374, primary mouse peritoneal cavity cells were prepared. The identity of the mouse peritoneal cells was confirmed with CD11b macrophage antibody and flow cytometry. Next, the mouse peritoneal cells, Raw 264.7 cells and splenocytes were seeded in parallel. The following day, the cells were incubated with 1 μM CyNA-374 for 1 hour, then analyzed immediately using fluorescence microscopy.

[8] = tested on: M1 macrophages (LPS-activated Raw 264.7 cells); assay: Staining of activated (M1) macrophages; format: cell-based, mouse; conditions: 1 μM, 1 hour
Method: To determine if CyNA-374 could stain activated macrophages, Raw 264.7 cells were activated to M1 macrophages. Raw 264.7 cells were plated at 5×10^6 cells/well and allowed to adhere. In some experiments, the cells were then starved for 12 hours, meaning that cells were washed with phosphate-buffered saline (PBS) and incubated in DMEM supplemented with 1% penicillin/streptomycin for 12 hours, but without 10% FBS. After 12 hours, the cells were exposed to 60 ng/mL LPS and, at the 24-hour time point, the supernatant from the cells stimulated by LPS was collected for measurement of NO2 using the Griess reaction. The unstimulated Raw 264.7 cells produced approximately 8.5 μmol/L NO2, while the stimulated Raw 264.7 (or M1) cells produced approximately 45 μmol/L NO2. The M1 cells were seeded in parallel with the unactivated Raw 264.7 cells and the splenocytes. The cells were incubated with 1 μM CyNA-374 for 1 hour, then analyzed using fluorescence microscopy.

[9] = Absorbance and fluorescence maximum wavelengths and quantum yields of the CyNA library; format: physicochemical
Summary of the method: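 Absorption and emission maxima and quantum yields of the 80-member amine-derivatized CyNA library were measured on a plate spectrophotometer.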

formation of aggregates in aqueous solution [2]	photostability relative to ICG-sulfo-OSu ([3]; 10 μM in PBS pH 7.3, 1% DMSO) [fold]	maximum relative fluorescence units (rfu) ([3]; photobleaching experiments)	Quantum Yield (DMSO) ([4]; DMSO, ICG as standard) [%]	Quantum Yield (aqueous media) ([4]; PBS pH 7.3, 0.1% DMSO) [%]	ε (aqueous media) ([4]; PBS pH 7.3, 0.1% DMSO)	F/Fo, fluorescent intensity at 8 hours vs 0 hours [6] [%]	max RFU, maximum relative fluorescence units [6]	λabs, absorbance maximum wavelength ([9]; CyNA library) [nm]	λem, fluorescence maximum wavelength ([9]; CyNA library) [nm]	φ, quantum yield ([9]; in DMSO, Cardiogreen as standard)	Compound	fluorescence intensity and photostability after protein conjugation [1]	fluorescent properties compared to ICG and ICG-sulfo-OSu ([4]; 10 μM in PBS, 1% DMSO, excitation 760 nm, FIG. 7B)	selective staining in cell imaging screen [5]	staining by fluorescence microscopy [7]	staining of activated macrophages [8]
little to no formation of aggregates	15	708	13	3.3	108,000 M^−1 · cm^−1						CCCN1/C(=C/C=C2\CCCC(/C=C/C3=[N+](CCC)c4ccccc4C3(C)C)=C2N(CCCN2CCCCC2C)C(=O)CCCC(=O)ON2C(=O)CCC2=O)C(C)(C)c2ccccc21 (stereo not shown) [CyNE790]	maintains its superior fluorescence intensity and photostability	superior fluorescent properties to both ICG and ICG-sulfo-OSu			
						94	1224.6	806	821	0.14	CCCN1/C(=C/C=C2\CCCC(/C=C/C3=[N+](CCC)c4ccccc4C3(C)C)=C2N(Cc2ccccc2)C(C)=O)C(C)(C)c2ccccc21 [CyNA-374]			selectively stained mouse macrophages, but not mouse splenocytes	stained both the Raw 264.7 cells and the mouse peritoneal cells	stained both the unactivated Raw 264.7 cells and the M1 cells
